US8454938B2, “Treatment of respiratory diseases” (Solaeromed Inc., priority 2005, dated 2013)

Test system: allergic bronchoconstriction in Brown Norway rats
Assay: Allergic asthma model: OVA-sensitized and challenged Brown Norway rats, whole body plethysmography (Penh)
Format: in vivo, Brown Norway rat
Procedure: An animal model of allergic asthma was developed by sensitizing Brown Norway rats (BNR) to ovalbumin (OVA) and subsequently challenging them with the same allergen.
Male Brown Norway rats (BN/SsdNhsd) 150-199 g were used. A stock solution prepared containing the following ingredients: 10 mL 0.9% of sterile saline solution, 100 μL of ovalbumin solution 1 mg/mL in saline, 1.5 g Al(OH)3 and 10 μL Bordetella Pertussis purified toxin stock solution 500 ng/mL. The solution is mixed thoroughly but not vortexed and then injected intraperitoneally into each rat using a 1 cc syringe and 25-gauge needle.
The rat is placed in the whole body plethysmograph/chamber for approximately 30 minutes in order to calm down. Baseline pulmonary function is recorded for 30 minutes. A solution of ovalbumin 5% in saline is aerosolized for 5 minutes using an ultrasonic nebulizer from Buxco®. The pulmonary function is recorded for 6 hrs during which the effects of different treatments on airway resistance were evaluated.
A whole body plethysmograph from Buxco® was used to monitor pulmonary function and the effect of perfluorocarbon fluids (PFCs) and/or different gas mixture containing CO2 on constricted airways. The plethysmograph consists of a chamber with a pressure transducer along with humidity and temperature probes connected to an amplifier Max II, which is connected to a personal computer and managed by BioSystem XA software. In addition, there are two flow regulators to pump the air or CO2 containing gas mixture in and out of the chamber, and an ultrasonic nebulizer. The primary advantage of the Buxco® methodology is that it is non-invasive and minimizes stress, with animals allowed to freely roam within the measuring chamber. The evaluation of bronchoconstriction was achieved using the Penh (enhanced pause) (an index of airway obstruction) [see Hamelmann et al., (1997) Noninvasive measurement of airway responsiveness in allergic mice using barometric plethysmography, Am J Respir Crit Care Med […] September; 156(3 Pt 1):766-775, incorporated herein by reference]. […]
A gas mixture containing air and CO2 (2, 5, 8, 10 and 20%, respectively, by volume) was delivered to the plethysmograph chamber as described above. The gas was monitored (O2 and CO2) using a gas analyzer from Buxco® and pulmonary function was recorded during and after cessation of the treatment. All treatments were delivered during the late phase response to OVA challenge. […]
FC-43 is placed in the Arcotech dual chamber jet nebulizer and driven by a gas mixture containing air and 5% CO2 by volume. The concentration of FC-43 was determined as outlined above and averaged about 39 mg/liter. The treatment was delivered for 10 minutes. Two minutes after cessation of the first treatment, salbutamol (1 mg/ml) was delivered for 5 minutes using an ultrasonic nebulizer.
FC-77 is placed in the Arcotech dual chamber jet nebulizer and driven by a gas mixture containing air and 5% CO2 by volume. The treatment was delivered for 10 minutes. For technical reasons pulmonary function was evaluated immediately after cessation of the treatment.
Perfluorodecalin is placed in the Arcotech dual chamber jet nebulizer and driven by a gas mixture containing air and 5% CO2 by volume. The treatment was delivered for 10 minutes. For technical reasons pulmonary function was evaluated immediately after cessation of the treatment.
Perfluorooctylbromide is placed in the Arcotech dual chamber jet nebulizer and driven by a gas mixture containing air and 20% CO2 by volume. The treatment was delivered for 10 minutes. For technical reasons pulmonary function was evaluated immediately after cessation of the treatment.
A mixture of approximately equal amounts of FC-43 and FC-77 was placed in the Arcotech dual chamber jet nebulizer and driven by a gas mixture containing air and 5% CO2 by volume. The treatment was delivered for 10 minutes. […]

Row | SMILES | bronchodilation by CO2 alone (2%, 5%, 8%, 10% and 20% CO2 by volume, balance air) | duration of bronchodilation (20% CO2 in air alone) | relaxation of constricted airways (percent reduction of bronchoconstriction), comparison between CO2 concentrations (20% and 8% CO2 compared with 2% and 5% CO2 in air, groups of rats) | drop in Penh (salbutamol 1 mg/ml alone) | duration of drop in Penh before returning to pretreatment levels (salbutamol 1 mg/ml alone) [min] | duration of response (salbutamol 1 mg/ml given after PFC/CO2 treatment) | drop in Penh (response) (salbutamol 1 mg/ml given after PFC/CO2 treatment (FC-43 with 5% CO2 in air, 10 minutes))
1 | O=C=O [CO2, carbon dioxide] | acts as a bronchodilator | approximately 2 minutes | significantly (P<0.05) higher |  |  |  | 
2 | CC(C)(C)NCC(O)c1ccc(O)c(CO)c1 (stereo not shown) [salbutamol] |  |  |  | approximately 60% | 5 | never returned to pre-treatment levels | approximately 70%
